Key:
human orexin receptor 2 = human orexin receptor 2 (Homo sapiens (Human), UniProt O43614); assay: Orexin antagonist activity, intracellular calcium FLIPR assay, RBL-2H3 cells expressing human orexin receptor 2; format: cell-based; conditions: RBL-2H3 cells stably expressing human orexin receptor 2; orexin-A at approx. 80% maximal response; compound added 15 minutes before; read-out: Human Orexin2R IC50
human orexin receptor 1 = human orexin receptor 1 (Homo sapiens (Human), UniProt O43613); assay: Orexin antagonist activity, intracellular calcium FLIPR assay, RBL-2H3 cells expressing human orexin receptor 1; format: cell-based; conditions: RBL-2H3 cells stably expressing human orexin receptor 1; orexin-A at approx. 80% maximal response; compound added 15 minutes before; read-out: Human Orexin1R IC50
Sequence of human orexin receptor 1 (O43613 whole entry): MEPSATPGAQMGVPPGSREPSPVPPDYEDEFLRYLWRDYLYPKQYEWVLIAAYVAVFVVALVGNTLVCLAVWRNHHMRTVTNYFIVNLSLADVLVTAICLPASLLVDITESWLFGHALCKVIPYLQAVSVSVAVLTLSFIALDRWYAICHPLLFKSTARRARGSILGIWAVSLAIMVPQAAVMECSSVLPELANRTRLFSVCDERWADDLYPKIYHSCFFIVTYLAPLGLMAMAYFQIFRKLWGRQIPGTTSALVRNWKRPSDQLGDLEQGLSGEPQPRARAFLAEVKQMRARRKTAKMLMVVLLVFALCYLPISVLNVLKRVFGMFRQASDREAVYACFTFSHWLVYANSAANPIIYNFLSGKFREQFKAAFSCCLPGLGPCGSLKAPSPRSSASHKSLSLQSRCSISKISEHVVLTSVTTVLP

Sequence of human orexin receptor 2 (O43614 whole entry): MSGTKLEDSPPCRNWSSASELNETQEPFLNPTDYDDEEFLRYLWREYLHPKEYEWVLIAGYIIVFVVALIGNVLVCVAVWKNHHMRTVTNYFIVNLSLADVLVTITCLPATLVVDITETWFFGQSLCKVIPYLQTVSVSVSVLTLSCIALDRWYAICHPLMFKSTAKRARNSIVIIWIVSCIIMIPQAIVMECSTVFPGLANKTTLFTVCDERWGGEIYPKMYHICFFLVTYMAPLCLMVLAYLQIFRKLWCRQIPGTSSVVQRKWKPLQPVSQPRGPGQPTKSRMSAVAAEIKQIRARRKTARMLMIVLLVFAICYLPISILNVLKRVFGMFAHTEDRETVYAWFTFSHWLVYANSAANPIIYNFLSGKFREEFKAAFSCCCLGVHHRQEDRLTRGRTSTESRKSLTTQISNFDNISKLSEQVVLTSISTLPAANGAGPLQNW

SMILES | IC50 (human orexin receptor 2) [nM] | IC50 (human orexin receptor 1) [nM]
CCc1nc(C(F)(F)F)cnc1N[C@H]1CCC[C@@H]1NC(=O)c1ccccc1-c1nc(C)no1 [Example 149, N-[(1S,2S)-2-{[3-Ethyl-5-(trifluoromethyl)pyrazin-2-yl]amino}cyclopentyl]-2-(3-methyl-1,2,4-oxadiazol-5-yl)benzamide] | > 10000 | 25
O=C(N[C@H]1CCC[C@@H]1Nc1cnc(C2CC2)cn1)c1ccccc1-n1nccn1 [Example 112, N-[(1S,2S)-2-[(5-Cyclopropylpyrazin-2-yl)amino]cyclopentyl]-2-(2H-1,2,3-triazol-2-yl)benzamide] | > 10000 | 476

Next, values leading:

IC50 (human orexin receptor 2) [nM] | IC50 (human orexin receptor 1) [nM] | SMILES
> 10000 | 279 | CN(c1cnc(C(F)(F)F)cn1)[C@H]1CCC[C@@H]1NC(=O)c1c(F)cccc1-n1nccn1 [Example 75, 2-Fluoro-N-[(1S,2S)-2-{methyl[5-(trifluoromethyl)pyrazin-2-yl]amino}cyclopentyl]-6-(2H-1,2,3-triazol-2-yl)benzamide]
> 10000 | 24 | O=C(N[C@H]1CCC[C@@H]1Nc1ncc(C(F)(F)F)cc1F)c1ncccc1-c1ncccn1 [Example 147, N-[(1S,2S)-2-{[3-Fluoro-5-(trifluoromethyl)pyridin-2-yl]amino}cyclopentyl]-3-(pyrimidin-2-yl)pyridine-2-carboxamide]
> 10000 | 89 | O=C(N[C@H]1CCC[C@@H]1Nc1ccc(C(F)(F)F)cn1)c1cc(F)ccc1-c1ncccn1 [Example 14, 5-Fluoro-2-(pyrimidin-2-yl)-N-[(1S,2S)-2-{[5-(trifluoromethyl)pyridin-2-yl]amino}cyclopentyl]benzamide]

— patent publication US9156829B2, “Cycloalkyl and heterocycloalkyl compounds as orexin receptor antagonists” (Takeda Pharmaceutical Company Limited, priority 2014, dated 2015)
